# Assays:
# NALM6 cells = assay: Cell cycle by flow cytometry, NALM6; type: cell-based; conditions: 3 μM/L, 24 hours, vs DMSO
# Procedure: 1.3 After treating the two types of cells, i.e. NALM6 and SUPB15, with GZD824 (3 μM/L) and DMSO respectively for 24 hours and then treating them with a cell cycle kit, the cell cycle was measured with flow cytometry. […] Please refer to FIG. 3 for the results.
# [1] = system: human primary leukemia cells from P #1 PDX mouse spleen; assay: Apoptosis of human primary leukemia cells from P #1 PDX mouse spleen, with and without IGF-1; type: cell-based; conditions: P #1 PDX spleen cells; GZD824 1 μM/L, 24 hours, vs DMSO
# Procedure: 6.2 Human primary leukemia cells were extracted from P #1 PDX mouse spleen and co-cultured with DMSO, GZD824 (1 μM/L), IGF-1 (10 ng/mL), or GZD824 (1 μM/L) and IGF-1 (10 ng/mL) for 24 hours. The ratios of ANNEXIN V positive cells were analyzed by statistical methods. […] Please refer to FIG. 17 for the experimental results.
smiles,measurement,setting,value
"Cc1ccc(C(=O)Nc2ccc(CN3CCN(C)CC3)c(C(F)(F)F)c2)cc1C#Cc1cnc2[nH]ncc2c1 [GZD824, (3-((1H-pyrazol[3,4-b]pyridine-5-substituted)ethinyl)-4-methyl-N-(4-((4-methylpiperazine-1-substituted)methyl)-3-(trifluoromethyl)phenyl)benzamide)]",ratio of cells at G0/G1 phase,NALM6 cells,increase the ratio of these two types of cells at G0/G1 phase
same,apoptosis of primary leukemia cells (ANNEXIN V positive cells),[1],facilitate apoptosis of the primary leukemia cells
